This passage reports IC50 results from US20250154145A1, “OXER1 ANTAGONISTS AND USES THEREOF” (Fairhaven Pharmaceuticals Ins., priority 2021, published 2025).

This experiment has as its system neutrophils. Briefly: Neutrophil calcium flux assay (5-OXO-ETE-stimulated, Indo-1 fluorescence). The experiment is classed as cell-based. The settings on record: 5-OXO-ETE-stimulated calcium flux. In short, it runs like this: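 Indo-1-loaded neutrophils (5×10^6 cells/ml, 30 min at 37 °C) in HBSS with Ca/Mg and HEPES, pre-incubated 5 min with antagonist or buffer. Stimulated with 5-OXO-ETE added at 200 nM (4× stock); fluorescence (ex 331/em 410 nm) read every 5 s for 30 cycles, expressed as net fluorescence.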
On the technique in general: Calcium assays in cells follow changes in intracellular calcium, usually with a dye or a luminescent sensor.

Broadly, the IC50 is the concentration that gives 50% inhibition.

A value given as a limit tells only on which side of the number the result lay.

`[2H]C([2H])([2H])n1c(CCCCOCc2ccccc2)c(C(=O)CC(C)CC(=O)O)c2cc(C#N)cnc21` (stereo not shown) [Compound I-420]: the IC50 (Neutrophil) is below 0.1 µM.

As for `CC(CC(=O)O)CC(=O)c1c(COCCOCc2cccc(Cl)c2)n(C)c2ccc(Cl)cc12` (stereo not shown) [Compound I-65], the IC50 (Neutrophil) was 0.1 to 0.3 µM.

Consider `Cn1ccc(C(=O)N2CC[C@H](C(=O)O)C2)c1CCCCOCc1cccc(Cl)c1` [Compound I-162], for which, where the note is “Neutrophil”, the half-maximal inhibitory concentration (IC50) was above 0.3 µM.

For `CC(C)[C@H](CC(=O)O)CC(=O)c1c(CCCCOCc2ccccc2)n(C)c2ncc(C#N)cc12` [Compound I-436], the IC50 (Neutrophil) is above 0.3 µM.

On to `Cc1ccccc1COCCCCc1c(C(=O)CC(C)CC(=O)O)c2cc(C#N)cnc2n1C` (stereo not shown) [Compound I-450], for which the half-inhibitory concentration (IC50) (Neutrophil) is above 0.3 µM.

In the case of `C[C@H](CC(=O)O)CC(=O)c1c(CCCCCNC(=O)C2CC2)n(C)c2ccc(Cl)cc12` [Compound I-127], the IC50 (Neutrophil) is above 0.3 µM.

As to `C[C@H](CC(=O)O)CC(=O)c1c(CCCCc2nc3cc(Cl)ccc3o2)n(C)c2ccc(Cl)cc12` [Compound I-145], the IC50 (Neutrophil) was above 0.3 µM.

In the case of `C[C@H](CC(=O)O)CC(=O)c1c(CCCCOCc2cccc(F)c2)n(C)c2ncc(Cl)cc12` [Compound I-100], the concentration for half-maximal inhibition (IC50) (Neutrophil) was 0.1 to 0.3 µM.

In the case of `Cn1c(CCCCCCc2cccc(Cl)c2)c(C(=O)N2CCC[C@H]2CC(=O)O)c2cc(Cl)ccc21` [Compound I-121], the IC50 (Neutrophil) was above 0.3 µM.

With `C[C@H](CC(=O)O)CC(=O)c1c(CCCCOCc2cccc(F)c2)n(C)c2ncc(C#N)cc12` [Compound I-293], for the setting “Neutrophil”, the IC50 was below 0.1 µM.

For `CC(=O)N(C)c1cccc(C(O)CCCCCc2c(C(=O)CC(C)CC(=O)O)c3cc(C#N)cnc3n2C)c1` (stereo not shown) [Compound I-313], the IC50 (Neutrophil) is above 0.3 µM.

As for `C[C@H](CC(=O)O)CC(=O)c1c(CCOCCCc2cccc(Cl)c2)n(C)c2ccc(Cl)cc12` [Compound I-62], the half-maximal inhibitory concentration (IC50) (Neutrophil) was below 0.1 µM.

On to `CC(CC(=O)O)CC(=O)c1c(CCCCOCc2ccc(Cl)cc2)n(C)c2ncc(C#N)cc12` (stereo not shown) [Compound I-290], for which the half-maximal inhibitory concentration (IC50) (Neutrophil) lay in the range of 0.1 to 0.3 µM.

Consider `CC(CC(=O)O)CC(=O)c1c(CCCCOCc2cncc(C#N)c2)n(C)c2ncc(Cl)cc12` (stereo not shown) [Compound I-445], for which the IC50 (Neutrophil) is above 0.3 µM.

For the compound `CC(CC(=O)O)CC(=O)c1c(CCCCCCC#CC2COC2)n(C)c2ccc(Cl)cc12` (stereo not shown) [Compound I-321], under “Neutrophil”, the IC50 is below 0.1 µM.

`CC(CC(=O)O)CC(=O)c1c(CCCCOCc2ccc(F)cc2)n(C)c2ncc(C#N)cc12` (stereo not shown) [Compound I-297]: the IC50 (Neutrophil) was below 0.1 µM.

For the compound `C[C@H](CC(=O)O)N(C)C(=O)c1c(CCCCOCc2cccc(Cl)c2)n(C)c2ncc(C#N)cc12` [Compound I-240], the half-inhibitory concentration (IC50) (Neutrophil) was above 0.3 µM.

Consider `C[C@@H](CC(=O)c1c(CCCCCCc2cccc(Cl)c2)n(C)c2ncc(Cl)cc12)Cc1nnn[nH]1` [Compound I-84], for which the IC50 (Neutrophil) is below 0.1 µM.

In the case of `CC(CNC(=O)c1c(CCCCCCc2cccc(Cl)c2)n(C)c2ccc(Cl)cc12)C(=O)O` (stereo not shown) [Compound I-241], the IC50 (Neutrophil) is above 0.3 µM.

In the case of `CC(CN(C)C(=O)c1c(CCCCOCc2cccc(Cl)c2)n(C)c2ncc(C#N)cc12)C(=O)O` (stereo not shown) [Compound I-244], the IC50 (Neutrophil) was above 0.3 µM.

Regarding `C[C@H](CC(=O)O)CC(=O)c1c(CCCCOCc2cccc(C#N)c2)n(C)c2ncc(C#N)cc12` [Compound I-383], for the setting “Neutrophil”, the IC50 was below 0.1 µM.

As for `CC(CC(=O)O)CC(=O)c1c(CCCCCCc2cccc(Cl)c2)n(C[C@H](O)CO)c2ncc(C#N)cc12` (stereo partly shown) [Compound I-282], for the setting “Neutrophil”, the IC50 is above 0.3 µM.

As to `CC(C)CCCCc1c(C(=O)C[C@H](C)CC(=O)O)c2cc(Cl)ccc2n1C` [Compound I-70], the 50% inhibitory concentration (IC50) (Neutrophil) fell in the range of 0.1 to 0.3 µM.

As to `C[C@@H](CC(=O)O)CC(=O)c1c(CCCCCOCc2ccccc2)n(C)c2ncc(C#N)cc12` [Compound I-423], the IC50 (Neutrophil) was above 0.3 µM.

Take `CC(CC(=O)O)CC(=O)c1c(CCCCS(=O)(=O)Cc2ccccc2)n(C)c2ncc(C#N)cc12` (stereo not shown) [Compound I-428]: the IC50 (Neutrophil) was above 0.3 µM.

As for `C[C@@H](CC(=O)O)CC(=O)c1c(CCCCOCc2ccc(F)cc2)n(C)c2ncc(Cl)cc12` [Compound I-216], the IC50 (Neutrophil) is above 0.3 µM.

On to `Cn1c(CCCCOCc2cccc(Cl)c2)c(C(=O)N2CC[C@H](C(=O)O)C2)c2cc(Cl)cnc21` [Compound I-175], for which the half-inhibitory concentration (IC50) (Neutrophil) is above 0.3 µM.

For the compound `CC(CC(=O)O)CC(=O)c1c(CCCCCC(O)c2cccc(C(=O)N(C)C)c2)n(C)c2ncc(C#N)cc12` (stereo not shown) [Compound I-314], the concentration for half-maximal inhibition (IC50) (Neutrophil) is below 0.1 µM.

As for `C[C@H](CC(=O)O)CC(=O)c1c(CCOCCOc2cccc(Cl)c2)n(C)c2ccc(Cl)cc12` [Compound I-64], under “Neutrophil”, the half-inhibitory concentration (IC50) fell in the range of 0.1 to 0.3 µM.

In the case of `C[C@@H](CC(=O)O)CC(=O)c1c(CCCCOCc2cc(Cl)cc(Cl)c2)n(C)c2ncc(C#N)cc12` [Compound I-386], the IC50 (Neutrophil) was in the range of 0.1 to 0.3 µM.

For `CC(CC(=O)O)CC(=O)c1c(CCCCCC(O)c2cccc(C(=O)N(C)C)c2)n(C)c2ncc(C#N)cc12` (single isomer, unassigned) [Compound I-316], the IC50 is above 0.3 µM.

For `C[C@H](CC(=O)NCC(=O)O)CC(=O)c1c(CCCCOCc2ccccc2)n(C)c2ncc(C#N)cc12` [Compound I-459], the IC50 (Neutrophil) was above 0.3 µM.

Turning to `C[C@H](CC(=O)O)CC(=O)c1c(CCCCOCc2cccc(OC(F)(F)F)c2)n(C)c2ncc(C#N)cc12` [Compound I-389], the IC50 (Neutrophil) is below 0.1 µM.

For `CC(CC(=O)O)CC(=O)c1c(CCOCCNc2ccccc2)n(C)c2ncc(C#N)cc12` (stereo not shown) [Compound I-289], the IC50 (Neutrophil) was in the range of 0.1 to 0.3 µM.

On to `Cn1c(CCCCCCC#CC2CC(F)(F)C2)c(C(=O)N2CC[C@H](C(=O)NCCS(=O)(=O)O)C2)c2cc(C#N)cnc21` [Compound I-464], for which, under “Neutrophil”, the IC50 is above 0.3 µM.

On to `CC(CC(=O)O)CC(=O)c1c(CCCCCC(O)c2cccc(C#N)c2)n(C)c2ncc(Cl)cc12` (single isomer, unassigned) [Compound I-309], for which the IC50 is above 0.3 µM.

`CC(CC(=O)O)CC(=O)c1c(CCCCCCCC#CC2CC(F)(F)C2)n(C)c2ncc(Cl)cc12` (stereo not shown) [Compound I-334]: the IC50 (Neutrophil) is above 0.3 µM.

With `CC(CC(=O)O)CC(=O)c1c(CCCCOCc2cccc(Cl)c2)n(C)c2nccc(Cl)c12` (stereo not shown) [Compound I-379], the half-maximal inhibitory concentration (IC50) (Neutrophil) is above 0.3 µM.

`CC(CC(=O)O)CC(=O)c1c(CCCCCC(O)c2cccc(C#N)c2)n(C)c2ncc(Cl)cc12` (single isomer, unassigned) [Compound I-308]: the half-inhibitory concentration (IC50) is below 0.1 µM.

`C[C@H](CC(N)=O)CC(=O)c1c(CCCCOCc2cccc(Cl)c2)n(C)c2ncc(Cl)cc12` [Compound I-356]: where the note is “Neutrophil”, the IC50 is above 0.3 µM.

For `C[C@H](CC(=O)N[C@@H](Cc1ccccc1)C(=O)O)CC(=O)c1c(CCCCOCc2ccccc2)n(C)c2ncc(C#N)cc12` [Compound I-467], under “Neutrophil”, the IC50 is above 0.3 µM.

`C[C@H](CC(=O)O)CC(=O)c1c(CCCCC(=O)Nc2cccc(Cl)c2)n(C)c2ccc(Cl)cc12` [Compound I-80]: the IC50 (Neutrophil) was above 0.3 µM.

With `CC(CC(=O)O)CC(=O)c1c(CCCCOCc2cc(F)cc(F)c2)n(C)c2ncc(C#N)cc12` (stereo not shown) [Compound I-387], the IC50 (Neutrophil) lay in the range of 0.1 to 0.3 µM.

For `C[C@@H](CC(=O)O)CC(=O)c1c(CCCCOCc2cccc(C#N)c2)n(C)c2ncc(Cl)cc12` [Compound I-213], the IC50 (Neutrophil) was above 0.3 µM.

Take `CC(=O)NCCCCCc1c(C(=O)C[C@H](C)CC(=O)O)c2cc(Cl)ccc2n1C` [Compound I-126]: the half-inhibitory concentration (IC50) (Neutrophil) is above 0.3 µM.

For the compound `Cn1c(CCCCOCc2cccc(Cl)c2)c(C(=O)N2CC[C@H](c3nnn[nH]3)C2)c2cc(C(F)(F)F)cnc21` [Compound I-184], the half-inhibitory concentration (IC50) (Neutrophil) is above 0.3 µM.
